Values joined by “and” are separate entries in the source; they are usually repeats but may differ in a detail not shown here. Equal entries are not always repeated.
Experiments:
[1] = test system: intestinal monoamine oxidase; assay: Intestinal monoamine oxidase activity maintained in mice; format: in vivo; conditions: 0.6 mg/kg
Description: (§1) The inhibitor of monoamine oxidase inhibitor is administered in an effective amount, which is that amount necessary to alleviate, reduce, attenuate, or eliminate the symptoms associated with the addictive disorder, disorder or condition to be treated or to slow disease progression. The monoamine oxidase inhibitor can also be administered prophylactically, in order to prevent symptoms associated with the addicitve disorder or disease, or to delay onset of symptoms associated withdrawal or abstinence. If more than one inhibitor of monoamine oxidase inhibitor is used, the effective amount is that amount of the combination of inhibitor of monoamine oxidase inhibitors that is necessary to alleviate, reduce, eliminate, prevent, or delay onset of the symptoms associated with withdrawal or abstinence. The effective amount will be determined on an individual basis, and will be based in part, on consideration of the particular monoamine oxidase inhibitor, the individual's size and gender, the severity of the symptoms to be treated, the result sought, and the disease, disorder or condition to be treated or prevented. […] The effective amount can be determined by one of ordinary skill in the art, employing such factors and using no more than routine experimentation.

[2] = test system: striatal monoamine oxidase; assay: Inhibition of striatal monoamine oxidase in mice; format: in vivo
Description: as §1

smoking cessation = conditions: cited from earlier work
[3] = test system: subjects addicted to chronic cigarette smoking; assay: Experiment One: prospective open trial, self-reported cigarette consumption after quit day
Description: An experimental clinical trial was performed to assess the effect of selegiline alone and in combination with co-administration of nicotine.
In this prospective open trial subjects addicted to chronic cigarette smoking were administered either oral selegiline tablets (Jumex, Janssen, Belgium) 5 mg. b.i.d. or administered, for subjects 8 and 9, combined co-administration of both oral selegiline and nicotine replacement therapy via transdermal patch. Subjects were then monitored for their level of tobacco product consumption during the course of the next 8 weeks. The study protocol relied on the subjective report of the patient for measurement of the therapy outcome, i.e. reporting of level of cigarette consumption was elicited from the participating subjects at weekly intervals intervals throughout the course of the study, unless the patient was using nictotine replacement therapy. Initial, trial entry levels of craving were determined by administration of the Fagerström Tolerance Score exam, while initial level of mood was monitored by administering the Beck Depression Inventory.
Following one week on the medication, the subjects were instructed to quit smoking on “quit day”, as predetermined at the initiation of the study.

## C#CCN(C)CCCOc1ccc(Cl)cc1Cl [clorgyline]
[1]
  intestinal monoamine oxidase activity maintained: 50%
[2]
  preferred effective amount to inhibit 90% of striatal monoamine oxidase while maintaining 50% of intestinal activity: 0.6 mg/kg
[2]; 0.6 mg/kg
  inhibition of striatal monoamine oxidase: 90%

## CN1CCC[C@H]1c1cccnc1 [nicotine]
Smoking cessation; N. Eng J Med 1999, 340:685-91
  success rate, nicotine patch alone: 9.8%
Smoking cessation; current best accepted / known efficacy
  success rate for smoking cessation, nicotine transdermal patch as sole therapy: about 20%
[3]; week 1 from quit day, oral selegiline 5 mg b.i.d. and/or nicotine transdermal patch
  cigarettes consumed per week: 0 Cig/wk
[3]; week 2 from quit day
  cigarettes consumed per week: 0 Cig/wk
[3]; week 3 from quit day
  cigarettes consumed per week: 0 Cig/wk
[3]; week 4 from quit day
  cigarettes consumed per week: 0 Cig/wk
[3]; week 5 from quit day
  cigarettes consumed per week: 0 Cig/wk
[3]; week 6 from quit day
  cigarettes consumed per week: 21 Cig/wk
[3]; week 7 from quit day
  cigarettes consumed per week: 35 Cig/wk
[3]; week 8 from quit day
  cigarettes consumed per week: 60 Cig/wk

## C#CCN(C)[C@H](C)Cc1ccccc1 [selegiline, (R)-(−)-N,2-dimethyl-N-2-propynylphenethylamine]
[3]; during treatment, Table 2
  efficacy: subjects treated successfully (abstaining or significantly reducing cigarette smoking): about 30%
[3]; open trial, 8 weeks
  outcome in words: effect on cigarette smoking: effective treatment for substance addiction
[3]; week 1 from quit day, oral selegiline 5 mg b.i.d. and/or nicotine transdermal patch, listed as S
  cigarettes consumed per week: 0 Cig/wk (3×) and 21 Cig/wk and 140 Cig/wk and 210 Cig/wk and 35 Cig/wk
[3]; week 2 from quit day, listed as S
  cigarettes consumed per week: 0 Cig/wk (3×) and 21 Cig/wk and 70 Cig/wk
[3]; week 3 from quit day, listed as S
  cigarettes consumed per week: 0 Cig/wk (2×) and 25 Cig/wk and 3 Cig/wk
[3]; week 4 from quit day, listed as S
  cigarettes consumed per week: 0 Cig/wk (3×) and 25 Cig/wk
[3]; week 5 from quit day, listed as S
  cigarettes consumed per week: 0 Cig/wk (2×) and 25 Cig/wk
[3]; week 6 from quit day
  cigarettes consumed per week: 0 Cig/wk
[3]; week 7 from quit day, listed as S
  cigarettes consumed per week: 0 Cig/wk (2×) and 21 Cig/wk
[3]; week 8 from quit day, listed as S
  cigarettes consumed per week: 0 Cig/wk and 21 Cig/wk
[3]; week 9 from quit day
  cigarettes consumed per week: 21 Cig/wk
